Patent publication US20220259593A1, “CONTROL OF MAMMALIAN GENE DOSAGE USING CRISPR” (The Regents of the University of California, priority 2019, published 2022)

System: K562 CRISPRi cells
Test: Perturb-seq pooled growth measurement (sgRNA counts, growth phenotype γ, relative activity)
Format: cell-based, human
Conditions: sequencing read counts; for Perturb-seq pooled growth sgRNA counts, d5: 5 days of growth (day seven after transduction); for Perturb-seq pooled growth sgRNA counts, d10: 10 days of growth (day twelve after transduction); for Perturb-seq pooled growth sgRNA counts, T0: T0 = day two after transduction
Text: Finally, we sought to use intermediate-activity sgRNAs to explore relationships between expression levels of various genes and the resulting cellular phenotypes. To simultaneously measure gene expression levels and obtain rich phenotypes for a variety of sgRNA series, we used Perturb-seq, an experimental strategy that enables matched capture of the transcriptome and the identity of an expressed sgRNA for each individual cell in pools of cells (27, 31-33) (FIG. 12A). […] In addition to the single-cell transcriptomes, we measured bulk growth phenotypes conferred by sgRNAs in these cells.
To measure the growth rate defects conferred by each sgRNA for comparison with the transcriptional phenotypes, samples of 500,000 transduced cells were taken from the same transduced cell population used in the Perturb-seq experiment on days two, seven, and twelve after transduction. Genomic DNA was extracted using the Nucleospin Blood kit (Macherey-Nagel) and sgRNA amplicons were prepared as described previously and above (19), albeit with no genomic DNA digestion or gel purification, and sequenced on HiSeq 4000 as described above for the other screens. Growth phenotypes were calculated by comparing normalized sgRNA abundances at day seven and twelve to those at day two, as described above. […] Relative sgRNA activities measured at day seven (five days of growth) were used to assign sgRNA activities in further analysis.

Row | Substance | Perturb-seq pooled growth sgRNA counts, d5 | Perturb-seq pooled growth sgRNA counts, d10 | Perturb-seq pooled growth sgRNA counts, T0
1 | DUT_+_48624411.23-P1P2_10: sgRNA targeting DUT, GCGAGCGAGGAGACCAACGG, SEQ ID NO: 114 (listed as DNA, chemistry not fully specified) | 5403 | 4466 | 6538
2 | EIF2S1_−_67827080.23-P1P2_00: sgRNA targeting EIF2S1, GAGCGAAGCGCACGCTGAGG, SEQ ID NO: 136 (listed as DNA, chemistry not fully specified) | 1123 | 1318 | 5718
3 | EIF2S1_−_67827080.23-P1P2_01: sgRNA targeting EIF2S1, GAGCGAAACGCACGCTGAGG, SEQ ID NO: 139 (listed as DNA, chemistry not fully specified) | 3799 | 4065 | 5433
4 | EIF2S1_−_67827080.23-P1P2_02: sgRNA targeting EIF2S1, GAGCGCAGCGCACGCTGAGG, SEQ ID NO: 138 (listed as DNA, chemistry not fully specified) | 2570 | 2582 | 8035
5 | EIF2S1_−_67827080.23-P1P2_06: sgRNA targeting EIF2S1, GAGCGAAGCGCGCGCTGAGG, SEQ ID NO: 137 (listed as DNA, chemistry not fully specified) | 1718 | 2436 | 4549
6 | EIF2S1_−_67827080.23-P1P2_07: sgRNA targeting EIF2S1, GAGCGAAGCGCTCGCTGAGG, SEQ ID NO: 140 (listed as DNA, chemistry not fully specified) | 13281 | 22309 | 6931
7 | GATA1_−_48645022.23-P1P2_00: sgRNA targeting GATA1, GTGAGCTTGCCACATCCCCA, SEQ ID NO: 119 (listed as DNA, chemistry not fully specified) | 955 | 757 | 5712
8 | GATA1_−_48645022.23-P1P2_03: sgRNA targeting GATA1, GTGCGCTTGCCACATCCCCA, SEQ ID NO: 120 (listed as DNA, chemistry not fully specified) | 1927 | 1534 | 12276
9 | GATA1_−_48645022.23-P1P2_04: sgRNA targeting GATA1, GTGAGCTTACCACATCCCCA, SEQ ID NO: 121 (listed as DNA, chemistry not fully specified) | 860 | 668 | 4714
10 | GATA1_−_48645022.23-P1P2_06: sgRNA targeting GATA1, GTGAGCTTGCGACATCCCCA, SEQ ID NO: 123 (listed as DNA, chemistry not fully specified) | 5580 | 5489 | 9440
11 | GATA1_−_48645022.23-P1P2_08: sgRNA targeting GATA1, GTGAGCTTTCCACATCCCCA, SEQ ID NO: 122 (listed as DNA, chemistry not fully specified) | 2043 | 1873 | 7028
12 | GATA1_−_48645022.23-P1P2_12: sgRNA targeting GATA1, GTGAGCTTGCCACATCCGCA, SEQ ID NO: 124 (listed as DNA, chemistry not fully specified) | 7289 | 11548 | 4081
13 | GINS1_−_25388381.23-P1P2_00: sgRNA targeting GINS1, GGACTAGAACGAAAGGAGTG, SEQ ID NO: 93 (listed as DNA, chemistry not fully specified) | 547 | 280 | 3621
14 | GINS1_−_25388381.23-P1P2_03: sgRNA targeting GINS1, GGACTATAACGAAAGGAGTG, SEQ ID NO: 96 (listed as DNA, chemistry not fully specified) | 2982 | 2755 | 9799
15 | GINS1_−_25388381.23-P1P2_06: sgRNA targeting GINS1, GGACTAGAACGGAAGGAGTG, SEQ ID NO: 95 (listed as DNA, chemistry not fully specified) | 1828 | 1219 | 11452
16 | GINS1_−_25388381.23-P1P2_08: sgRNA targeting GINS1, GGACTAGAGCGAAAGGAGTG, SEQ ID NO: 94 (listed as DNA, chemistry not fully specified) | 2461 | 1756 | 18173
17 | GINS1_−_25388381.23-P1P2_14: sgRNA targeting GINS1, GGACTAGAACGAAAGGAGCG, SEQ ID NO: 97 (listed as DNA, chemistry not fully specified) | 5833 | 6093 | 6443
18 | GNB2L1_+_180670873.23-P1P2_00: sgRNA targeting GNB2L1, GTGCAAGGCGGCGGCAGGAG, SEQ ID NO: 55 (listed as DNA, chemistry not fully specified) | 2456 | 1685 | 2280
19 | GNB2L1_+_180670873.23-P1P2_02: sgRNA targeting GNB2L1, GTGCAAGACGGCGGCAGGAG, SEQ ID NO: 59 (listed as DNA, chemistry not fully specified) | 6216 | 7618 | 3839
20 | GNB2L1_+_180670873.23-P1P2_07: sgRNA targeting GNB2L1, GTGCAAGGCGGGGGCAGGAG, SEQ ID NO: 58 (listed as DNA, chemistry not fully specified) | 8322 | 8738 | 9894
21 | GNB2L1_+_180670873.23-P1P2_08: sgRNA targeting GNB2L1, GTGCAAGGTGGCGGCAGGAG, SEQ ID NO: 56 (listed as DNA, chemistry not fully specified) | 25247 | 17083 | 24451
22 | GNB2L1_+_180670873.23-P1P2_13: sgRNA targeting GNB2L1, GTGCAAGGCGGCGGCGGGAG, SEQ ID NO: 57 (listed as DNA, chemistry not fully specified) | 6350 | 5991 | 4708
